From patent US20220023381A1, “VDAC INHIBITORS FOR TREATING AUTOIMMUNE DISEASES” (NATIONAL INSTITUTE FOR BIOTECHNOLOGY IN THE NEGEV LTD., priority 2018, published 2022)

Experiments:
human PBMCs = assay: A23187-induced mitochondrial ROS (MitoSOX); type: cell-based; conditions: VBIT-4 (5 μM), A23187 (25 μM), 1 h
Experimental: Cellular cGAMP levels were measured by LC/MS (Agilent Technologies) using 5% perchloric acid extracts of WT and EndoG^−/− MEFs. Intracellular ROS production in MEFs was measured using the oxidative stress indicator CM-H2DCFDA (Invitrogen) with flow cytometry (FACS). Mitochondrial ROS in MEFs was evaluated using the mitochondrial superoxide indicator MitoSOX (Invitrogen) with a confocal microscope (LSM880, Zeiss, and the fluorescence intensity was measured using Zen software (Zeiss). To quantify mitochondrial ROS in human PBMCs, the cells were obtained from heparinized blood using a Ficoll-Paque gradient. The cells were washed with PBS, resuspended in RPMI 1640 medium, and transferred to 96-well plates. Subsequently, the cells were stimulated with calcium ionophore A23187 (25 μM), VBIT-4 (5 μM), and MitoSOX (2 μM) (Life Technologies). After 1 h at 37° C., the fluorescence was measured at 510/595 nm using a microplate reader (Synergy HTX; BIOTEK). Cells without dye were used as the blank control.

MRL/lpr mice = assay: MRL/lpr lupus-prone mouse model; type: in vivo
Experimental: All experiments were approved by the ACUC (Animal Care and Use Committee) of the NIH/NHLBI. Lupus-prone female MRL/MpJ-Fas^lpr/J mice (stock #000485, n=10 in each group), used as a model to determine the etiology of systemic lupus erythematosus (SLE), were purchased from The Jackson Laboratory. VIBIT4 was freshly dissolved in DMSO and diluted in water (final pH 5.0). The mice were treated with a daily dose of VBIT-4 (20 mg/kg) or vehicle in drinking water for 5 weeks, beginning at 11 weeks of age until euthanasia at 16 weeks of age. Blood and urine samples were collected when the mice were 16 weeks of age. The body weight of the mice was measured before and after VBIT-4 administration (at 11 and 16 weeks of age).
Proteinuria in fresh urine was measured using creatinine and albumin ELISA kits (Exocell), and mouse albumin was used to determine the proteinuria:creatinine ratio following the manufacturer's instructions.
Circulating mtDNA was isolated from 500 μl of serum using QIAamp Circulating Nucleic Acid Kit (Qiagen) according to the manufacturer's protocol. Briefly, serum samples were incubated with proteinase K and carrier RNA at 55° C. for 30 min in lysis buffer, and the circulating nucleic acids were bound to the silica membrane by applying vacuum pressure. After washing, the eluted samples were used for real-time RT-PCR. Primers of the mtDNA D-loop3 regions were used to quantify serum mtDNA. Anti-dsDNA antibodies were detected at 1:200 serum dilution using an ELISA kit (Alpha Diagnostic).
Kidneys were harvested after perfusion with PBS from MRL/lpr mice. Frozen kidney sections were fixed in cold acetone for 20 min, washed, and blocked for 18 h at 4° C. with 4% BSA in PBS. To detect glomerular deposits, the sections were stained with FITC-conjugated anti-mouse C3 antibody (GC3-90E-Z, Immunology Consultants Laboratory) and Alexa Fluor 594-conjugated anti-Mouse IgG antibody (A-11020, Invitrogen) with Hoechst staining at 1:100 dilution (Life Technologies) for 1 h at room temperature. After washing with PBS, the tissues were mounted, and the slides were observed using a LSM880 laser confocal microscope. The fluorescence intensity score was determined after analyzing random images for each animal in a blinded manner.

PTP = assay: Mitochondrial swelling assay (PTP opening); conditions: purified mitochondria, Ca2+-induced swelling
Experimental: The PTP opening was analyzed following mitochondria swelling. Briefly, freshly isolated mitochondria (0.5 mg/ml) were incubated for 2 min at 24° C. with the indicated concentrations of VBIT-4 for Ca^2+-induced mitochondrial swelling assay. Swelling was initiated by the addition of Ca^2+ (0.1 mM) to the sample cuvette. Absorbance changes at 520 nm were monitored every 16 s for 15 min. Cyclosporine A 10 μM) was used as a positive control. […] Ca^2+ accumulation by freshly isolated rat liver mitochondria (0.5 mg/ml) was assayed with the indicated concentrations of VBIT-4 in the presence of […] CaCl2) (containing [^45Ca^2+]), 220 mM mannitol, 70 mM sucrose, 5 mM succinate, 0.15 mM Pi and 15 mM Tris/HCl, pH 7.2. Ca^2+ uptake was terminated by rapid Millipore filtration (0.45 μm).

[1] = VBIT-4 20 mg/kg daily in drinking water, 5 weeks

O=C(CC(CO)N1CCN(c2ccc(OC(F)(F)F)cc2)CC1)Nc1ccc(Cl)cc1 (centres unmarked) [VBIT-4, N-(4-chlorophenyl)-4-hydroxy-3-(4-(4-(trifluoromethoxy)phenyl)-piperazin-1-yl)butanamide]
A23187-induced mitochondrial ROS (human PBMCs; healthy controls): decreased | A23187-induced mitochondrial ROS (human PBMCs; lupus patients): decreased | weight of spleen and lymph node (MRL/lpr mice; 20 mg/kg daily, 5 weeks, at 16 weeks of age): reduced | renal immune complex deposition (MRL/lpr mice; C3 and IgG in kidney glomeruli, compared with vehicle-treated mice): significantly diminished | alopecia of face and dorsal (MRL/lpr mice; [1]): suppressed | development of skin lesions (MRL/lpr mice; [1]): blocked | mortality (MRL/lpr mice; [1]): did not cause any mortality | thickening of the epidermis that accompanies leukocyte infiltration (MRL/lpr mice; [1]): blocked | change in body weight (MRL/lpr mice; VBIT-4 20 mg/kg daily in drinking water, 5 weeks, 11 and 16 weeks of age): did not cause any mortality or change in body weight | proteinuria (MRL/lpr mice; albumin:creatinine ratio, compared with vehicle-treated mice): significantly diminished | serum anti-dsDNA (MRL/lpr mice; compared with vehicle-treated mice): significantly diminished | cell-free mtDNA (MRL/lpr mice; serum, compared with vehicle-treated mice): significantly diminished | ISG induction (MRL/lpr mice; spleen, real-time PCR, compared with vehicle-treated mice): significantly diminished | PTP opening (PTP): did not prevent
